From patent publication US20240199677A1, “GLYCOSYLTRANSFERASE INHIBITORS” (CALIFORNIA INSTITUTE OF TECHNOLOGY, priority 2018, published 2024)
≈ marks a conversion by molar mass, not a printed value.

Experiments:
LoVo = assay: Cytotoxicity MTT assay, LoVo; assay type: cell-based; conditions: Homo sapiens, LoVo; read-out: Cytotoxicity IC50 LoVo
Protocol: (§1) Selected molecules were tested for cytotoxicity (IC50) in cancer and healthy cells via a MTT colorimetric assay.
(§2) Each cell was cultured in recommended medium by ATCC, and the IC50 data were obtained with each cell line.

[1] = test system: N-glycosylation of β-catenin; assay: Western blot, N-glycosylation of β-catenin (FIG. 6); assay type: cell-based; conditions: concentrations as low as
C. difficile ATCC43596 = assay: Minimum inhibitory concentration assay
AsPc-1 cells = assay: Synergistic assay (checkerboard), 11 and Paclitaxel; assay type: cell-based
Protocol: The FIC index was calculated according to the following equation. ΣFIC=FICA+FICB=CA/MICA+CB/MICB where MICA and MICB are MIC of drugs A and B, CA and CB are the concentrations of drugs A and B used in combination. In these interaction studies, ΣFIC of less than 0.5 represents synergistic activity.

SK-OV-3 = assay: Cytotoxicity MTT assay, SK-OV-3; assay type: cell-based; conditions: Homo sapiens, SK-OV-3; read-out: Cytotoxicity IC50 SK-OV-3
Protocol: as §1, §2

`NC[C@H]1O[C@@H](O[C@H]([C@H]2O[C@@H](n3ccc(=O)[nH]c3=O)[C@H](O)[C@@H]2O)[C@H](NCCCC(=O)NCc2ccc(N3CCC(Oc4ccc(C(F)(F)F)cc4)CC3)cc2)C(N)=O)[C@H](O)[C@@H]1O` [Compound 11] was tested, and the IC50 (LoVo) was 220 nM, the “Lowest concentration inhibiting N-glycosylation of β-catenin” value [1] was 0.39 nM and the Anti-C. difficile activity (C. difficile ATCC43596) was “display anti-C. difficile activity”. The MIC (C. difficile ATCC43596; Clostridioides difficile, ATCC43596, 48 h, read-out: C. difficile ATCC43596 MIC) was 3.25 µg/mL (≈ 3.75 µM), the “Antibacterial activity against C. difficile” value (C. difficile ATCC43596; FIG. 4) was “displayed antibacterial activity” and the “Σ FIC” value (AsPc-1 cells; Entry 1: A 11 CA 14.2 nM + B Paclitaxel CB 0.4 nM) was 0.224. The “Σ FIC” value (AsPc-1 cells; Entry 2: A 11 CA 14 nM + B Paclitaxel CB 0.88 nM) was 0.16, the “Σ FIC” value (AsPc-1 cells; Entry 3: A 11 CA 14 nM + B Paclitaxel CB 7 nM) was 0.27 and the “Σ FIC” value (AsPc-1 cells; Entry 4: A 11 CA 220 nM + B Paclitaxel CB 40 nM) was 0.224. For the same compound, the “Σ FIC” value (AsPc-1 cells; Entry 5: A 11 CA 110 nM + B Paclitaxel CB 88 nM) was 0.114, the IC50 (AsPc-1 cells; Homo sapiens, ASPC1, 11 alone, AsPc-1 cells, read-out: IC50 A) was 982 nM and the “Effect of combination of 11 and Taxol” value (AsPc-1 cells; all five combinations) was “synergistic effect”. It also gave an IC50 (SK-OV-3) of 2850 nM.
